# From patent US20250214977A1, “STAT6 INHIBITORS AND USES THEREOF” (Kymera Therapeutics, Inc., priority 2024, published 2025)
# System: Phosphorylation of STAT6 in human PBMC (CD19+ B cells)
# Assay: Phosphorylated STAT6 (pSTAT6) flow cytometry assay in human PBMC, IL-4 stimulated
# Format: cell-based
# Settings: compound 1 hour, 1 ng/ml IL-4 for 15 minutes, read-out: STAT6 IL4 pSTAT6 assay in PBMC: Average IC50
# Protocol: Example 2. Phosphorylated STAT6 (pSTAT6) Flow Cytometry Assay in Human PBMC
# Phosphorylation of STAT6 in human PBMC was quantitatively measured using flow cytometry technology. Human PBMC were seeded in 96-well plates with a density of 0.3 to 0.5 million cells per well in 100 μl fresh media. Compounds were then added to the assay plates with a final top concentration of up to 30 μM in a 1:3 dilution series with total of 9 doses. The assay plates were incubated for 1 hour at 37° C. under 5% CO2. The cells were then stimulated with 1 ng/ml of IL-4 (R&D Systems, Cat #6507-IL) for 15 minutes, followed by fixation for 30 minutes at 4° C. Cells were spun down at 350 g for 5 minutes. The supernatant was removed and cells were washed once with FACS buffer. Cells were permeabilized with 90% MeOH/H2O for 30 minutes at 4° C., followed by one wash with FACS buffer. Non-specific binding were blocked with human Fc for 1 hour at 4 C, followed by one wash with FACS buffer. AF488 conjugated pSTAT6 antibody (BD Biosciences, Cat #612600, 1:100 dilution) and PE conjugated CD19 antibody (BD Biosciences, Cat #341103, 1:50 dilution) diluted in 100 μl FACS buffer was added to each well with overnight incubation at 4° C. Cells were then washed once with FACS buffer and resuspended in 200 μl of FACS buffer for flow cytometry to quantify pSTAT6 in CD19+ B cells. The data was analyzed by GraphPad Prism and the dose dependent pSTAT6 inhibition was fit using the four-parameter inhibitor vs. response nonlinear regression.
row,Structure (SMILES),IC50 [µM]
1,CN(C)C(=O)c1cc2ccc(C3=CCCN(C(=O)CCN4CCOC4=O)C3)cc2[nH]1 [Example I-134],> 100
2,CN(C)C(=O)c1cc2cc(C3=CCCN(C(=O)CCc4ccccn4)C3)ccc2[nH]1 [Example I-200],> 100
3,CN(C)C(=O)c1cc2ccc(C3=CCCN(C(=O)c4cccnc4-c4cc(F)cc(F)c4)C3)cc2[nH]1 [Example I-94],10 to 100
4,CN(C)C(=O)c1cc2ccc(C3=CCCN(C(=O)CCc4nn[nH]n4)C3)cc2[nH]1 [Example I-15],10 to 100
5,CN(C)C(=O)c1cc2ccc(C3=CCCN(C(=O)C4ON=C(c5ccccc5)O4)C3)cc2[nH]1 (stereo not drawn) [Example I-71],10 to 100
6,CN(C)C(=O)c1cc2ccc(C3=CCCN(C(=O)Cc4cccc(OCc5ccccc5)c4)C3)cc2[nH]1 [Example I-107],0.1 to 1
7,CN(C)C(=O)c1nc2cc(C3=CCCN(C(=O)CCn4ccnn4)C3)ccc2s1 [Example I-192],> 100
8,CN(C)C(=O)c1cc2ccc(C3=CCCN(C(=O)c4ccc5c(n4)OCCO5)C3)cc2[nH]1 [Example I-58],> 100
9,CN(C)C(=O)c1cc2cc(C3=CCCN(C(=O)CCc4ncns4)C3)ccc2o1 [Example I-165],> 100
10,CN(C)C(=O)c1cc2ccc(C3=CCCN(C(=O)CCc4cccc(C#N)c4)C3)cc2[nH]1 [Example I-63],> 100
11,CN(C)C(=O)c1cc2ccc(C3=CCCN(C(=O)C4Cc5ccccc5CN4C=O)C3)cc2[nH]1 (stereo not drawn) [Example I-202],0.1 to 1
12,CC(=O)N1CCc2ccc(CC(=O)N3CCC=C(c4ccc5oc(C(=O)N(C)C)cc5c4)C3)cc2C1 [Example I-193],> 100
13,CN(C)C(=O)c1cc2ccc(C3=CCCN(C(=O)C4CC(=O)N(Cc5ccccc5)C4)C3)cc2[nH]1 (stereo not drawn) [Example I-88],10 to 100
14,CC(=O)NC(Cn1ccnn1)C(=O)N1CCC=C(c2ccc3oc(C(=O)N(C)C)cc3c2)C1 (stereo not drawn) [Example I-178],> 100
15,CN(C)C(=O)c1cc2ccc(C3=CCCN(C(=O)c4nonc4C4CC4)C3)cc2[nH]1 [Example I-44],10 to 100
16,CN(C)C(=O)c1cc2cc(C3=CCCN(C(=O)CCc4cncnc4)C3)ccc2o1 [Example I-272],> 100
17,CC1CCCN(C(=O)c2cc3ccc(C4=CCCN(C(=O)CCn5ccnn5)C4)cc3[nH]2)C1 (stereo not drawn) [Example I-127],10 to 100
18,CN(C)C(=O)c1cc2cc(C3=CCCN(C(=O)C4Cc5ccccc5CN4C)C3)ccc2o1 (stereo not drawn) [Example I-285],> 100
19,CN(C)C(=O)c1cc2ccc(C3=CCCN(C(=O)C4(O)CCN(Cc5ccccc5)CC4)C3)cc2[nH]1 [Example I-98],10 to 100
20,CO[C@@H](C(=O)N1CCC=C(c2ccc3cc(C(=O)N(C)C)[nH]c3c2)C1)c1ccccc1 [Example I-50],10 to 100
21,CN(C)C(=O)c1cc2c(-c3ccc(O)cc3)cc(C3=CCCN(C(=O)CCn4ccnn4)C3)cc2[nH]1 [Example I-22],0.1 to 1
22,CN(C)C(=O)c1cc2c(F)c(C3=CCCN(C(=O)CCn4ccnn4)C3)ccc2o1 [Example I-323],0.1 to 1

row,Structure (SMILES),IC50 [µM]
1,CNc1ccc(-c2cc(C3=CCCN(C(=O)CCn4ccnn4)C3)cc3[nH]c(C(=O)N(C)C)cc23)c(F)c1 [Example I-115],1 to 10
2,CN(C)C(=O)c1cc2cc(C3=CCCN(C(=O)CCc4nccc5ccccc45)C3)ccc2o1 [Example I-206],> 100
3,Cc1nocc1C(=O)N1CCC=C(c2ccc3cc(C(=O)N(C)C)[nH]c3c2)C1 [Example I-35],10 to 100
4,CN(C)C(=O)c1cc2ccc(C3=CCCN(C(=O)CC(C)(O)C(F)(F)F)C3)cc2[nH]1 (stereo not drawn) [Example I-46],10 to 100
5,CN(C)C(=O)c1cc2cc(C3=CCCN(C(=O)Cn4ccc5ccccc54)C3)ccc2o1 [Example I-274],> 100
6,CN(C)C(=O)c1cc2cc(C3=CCCN(C(=O)Cc4ccncn4)C3)ccc2o1 [Example I-270],> 100
7,CCCN(C)C(=O)c1cc2cc(C3=CCCN(C(=O)CCn4ccnn4)C3)ccc2o1 [Example I-235],> 100
8,O=C(CCn1ccnn1)N1CCC=C(c2ccc3oc(C(=O)N4CCCCC4)cc3c2)C1 [Example I-128],10 to 100
9,CN(C)C(=O)c1cc2ccc(C3=CCCN(C(=O)CCn4nncc4CO)C3)cc2[nH]1 [Example I-13],0.1 to 1
10,CC(=O)Nc1ccc(CC(=O)N2CCC=C(c3ccc4oc(C(=O)N(C)C)cc4c3)C2)cc1 [Example I-287],> 100
11,CN(C)C(=O)c1cc2cc(C3=CCCN(C(=O)CCc4cn5cccnc5n4)C3)ccc2o1 [Example I-281],> 100
12,CN(C)C(=O)c1cc2cc(C3=CCCN(C(=O)Cc4c[nH]c5ncccc45)C3)ccc2o1 [Example I-309],> 100
13,"CN(C)C(=O)c1cc2cc([C@H]3CC[C@H](CO)N(C(=O)CCn4ccnn4)C3)ccc2o1 (single isomer, unassigned) [Example I-157]",> 100
14,CN(C)C(=O)c1cc2cc(C3=CCCN(C(=O)Cc4nc5ccccc5o4)C3)ccc2o1 [Example I-292],> 100
15,CN(C)C(=O)c1cc2ccc(C3=CCCN(C(=O)c4cnn(C)c4C(F)(F)F)C3)cc2[nH]1 [Example I-62],10 to 100
16,CN(C)C(=O)c1cc2cc(C3=CCCN(C(=O)CCn4ccc5ccccc54)C3)ccc2o1 [Example I-264],> 100
17,CN(C)C(=O)c1cc2cc(C3=CCCN(C(=O)CCn4nnc5ccccc54)C3)ccc2o1 [Example I-217],> 100
18,CN(C)C(=O)c1cc2ccc(C3=CCCN(C(=O)C4CS(=O)(=O)C4)C3)cc2[nH]1 [Example I-163],> 100
19,"C[C@H]1CCCCN1C(=O)c1cc2ccc(C3=CCCN(C(=O)CCn4ccnn4)C3)cc2[nH]1 (single isomer, unassigned) [Example I-129]",> 100
20,CN(C)C(=O)c1cc2ccc(C3=CCCN(C(=O)CCc4ccccc4C#N)C3)cc2[nH]1 [Example I-64],> 100
21,CN(C)C(=O)c1cc2cc(C3=CCCN(C(=O)CCn4ccnn4)C3)cc(C3CCNCC3)c2o1 [Example I-215],10 to 100
22,CNc1ccc(-c2cc(C3=CCCN(C(=O)CCn4ccnn4)C3)cc3[nH]c(C(=O)N(C)C)cc23)c(OC)c1 [Example I-117],< 0.1

row,Structure (SMILES),IC50 [µM]
1,CC(=O)N1Cc2ccccc2CC1C(=O)N1CCC=C(c2ccc3oc(C(=O)N(C)C)cc3c2)C1 (stereo not drawn) [Example I-170],> 100
2,CN(C)C(=O)c1cc2ccc(C3=CCCN(C(=O)[C@H]4Cc5ccccc5CN4)C3)cc2[nH]1 [Example I-59],1 to 10
3,CN(C)C(=O)c1cc2cc(C3=CCCN(C(=O)CCc4ccnnc4)C3)ccc2o1 [Example I-225],> 100
4,CNC(=O)c1cc2cc(C3=CCCN(C(=O)CCn4ccnn4)C3)ccc2o1 [Example I-236],> 100
5,COC(=O)c1cnn(-c2cc(C3=CCCN(C(=O)CCn4ccnn4)C3)cc3cc(C(=O)N(C)C)oc23)c1 [Example I-186],> 100
6,CN(C)C(=O)c1cc2ccc(C3=CCCN(C(=O)C4CN(Cc5ccccc5)CCO4)C3)cc2[nH]1 (stereo not drawn) [Example I-100],10 to 100
7,Cc1cc(Cl)c(S(C)(=O)=O)cc1C(=O)N1CCC=C(c2ccc3cc(C(=O)N(C)C)[nH]c3c2)C1 [Example I-74],10 to 100
8,Cc1cnnn1CCC(=O)N1CCC=C(c2ccc3cc(C(=O)N(C)C)[nH]c3c2)C1 [Example I-12],10 to 100
9,CCC[C@@H](C(=O)N1CCC=C(c2ccc3cc(C(=O)N(C)C)[nH]c3c2)C1)N1Cc2ccccc2C1=O [Example I-96],10 to 100
10,CN(C)C(=O)c1cc2cc(C3=CCCN(C(=O)CCc4ncccn4)C3)ccc2o1 [Example I-231],> 100
11,COCc1oncc1C(=O)N1CCC=C(c2ccc3cc(C(=O)N(C)C)[nH]c3c2)C1 [Example I-145],> 100
12,CN(C)C(=O)c1nc2cc(C3=CCCN(C(=O)CCn4ccnn4)C3)ccc2[nH]1 [Example I-234],> 100
13,CN(C)C(=O)c1cc2ccc(C3=CCCN(C(=O)COc4ccc(C(=O)O)cc4)C3)cc2[nH]1 [Example I-67],10 to 100
14,CN(C)C(=O)c1cc2ncc(C3=CCCN(C(=O)CCn4ccnn4)C3)cc2[nH]1 [Example I-194],> 100
15,CN(C)C(=O)c1cc2cc(C3=CCCN(C(=O)CCc4cccs4)C3)ccc2o1 [Example I-299],> 100
16,CN(C)C(=O)c1cc2cc(C3=CCCN(C(=O)CC4CCOCC4)C3)ccc2o1 [Example I-255],> 100
17,CN(C)C(=O)c1cc2ccc(C3=CCCN(C(=O)C4CC4F)C3)cc2[nH]1 (stereo not drawn) [Example I-26],> 100
18,Cc1ccccc1OCc1ccccc1C(=O)N1CCC=C(c2ccc3cc(C(=O)N(C)C)[nH]c3c2)C1 [Example I-106],1 to 10
19,CN(C)C(=O)c1cc2ccc(C3=CCCN(C(=O)Cc4c[nH]nn4)C3)cc2[nH]1 [Example I-38],> 100
20,CN(C)C(=O)c1cc2ccc(C3=CCCN(C(=O)c4cccnc4CS(C)(=O)=O)C3)cc2[nH]1 [Example I-69],> 100
21,Cc1c(S(C)(=O)=O)ccc(C(=O)N2CCC=C(c3ccc4cc(C(=O)N(C)C)[nH]c4c3)C2)c1Cl [Example I-138],> 100
22,CC(=O)NC(Cn1ccnn1)C(=O)N1CCC=C(c2ccc3oc(C(=O)N(C)C)cc3c2)C1 (stereo not drawn) [Example I-179],> 100
